These results are taken from PMC3297008, “Novel Marine Phenazines as Potential Cancer Chemopreventive and Anti-Inflammatory Agents” (Marine Drugs, 2012).

Like-named read-outs stand apart in the source and are kept apart here.

The subject of data set [1] is NFκB. As to the kind of experiment: TNF-α-induced NFκB luciferase reporter assay in stably-transfected human embryonic kidney cells 293. Type of data set: cell-based. Particulars: human embryonic kidney cells 293 NFκB reporter, TNF-α 2 ng/mL, 6 h; read-out: IC50, inhibition of TNF-α-induced NFκB activity. The method, then: Activation of NFκB may promote cell proliferation or prevent cell death through apoptosis. Inhibition of NFκB signaling has potential application for the treatment or prevention of cancer; some inhibitors are known. […] […].
We employed human embryonic kidney cells 293 Panomic (Fremont, CA, USA) for monitoring changes occurring along the NFκB pathway. Stable constructed cells were seeded into sterile 96-well plate at 20 × 10^3 cells per well. Cells maintained in Dulbecco’s modified Eagle’s medium (DMEM) Invitrogen Co. (Carlsbad, CA, USA), supplemented with 10% FBS, 100 units/mL penicillin, 100 µg/mL streptomycin, 2 mM L-glutamine. After 48 h incubation, the medium was replaced and cells were treated with various concentration of test substances dissolved in PBS. TNF-α (Human, Recombinant, E. coli, Calbiochem, Gibbstown, NJ, USA) was used as an activator at a concentration of 2 ng/mL (0.14 nM). The plate was incubated for 6 h. Spent medium was discarded and the cells were washed once with PBS. Cells were lysed using 50 µL (for 96-well plate) Reporter Lysis Buffer from Promega, by incubating for 5 min on a shaker, and stored at −80 °C. The luciferase assay was performed using the Luc assay system from Promega (Madison, WI, USA). The gene product, luciferase enzyme, reacts with luciferase substrate, emitting light which was detected using a luminometer (LUMIstar Galaxy BMG). Data for NFκB constructs are expressed as IC50 values (i.e., concentration required to inhibit TNF-activated NFκB activity by 50%).
A general note: Reporter assays use an easily measured gene product as a stand-in for the process of interest.

The test system of the next data set is RAW 264.7 cells. Kind of data set: Cell viability (SRB) of RAW 264.7 cells in the NO assay. The settings on record: 50 µM. It is filed as cell-based.
The subject of data set [2] is PGE2 production in LPS-induced RAW 264.7 cells. Kind of data set: LPS-induced PGE2 production in RAW 264.7 cells (ELISA). Type of data set: cell-based. The settings on record: Mus musculus. The method, then: RAW 264.7 cells (1 × 10^5 cells/well, 200 µL) were incubated in a 96-well culture plate in the presence of 5% CO2 at 37 °C for 24 h. The medium was changed to non-colored DMEM containing 5% FBS, and the cells were treated with various concentrations of compounds for 30 min followed by 1 μg/mL of LPS treatment for 24 h. Cell media were collected, diluted 18-times and used for measuring PGE2. Nunc-Immuno 96-well plates were coated with secondary antibody (goat anti-mouse IgG) affinity purified (Jackson Immuno Research Laboratories). Aliquots of cell media were added to the immune plate with primary PGE2 monoclonal antibody (Cayman Chemical) and a tracer PGE2-acetylcholinesterase (Cayman Chemical) and incubated overnight at room temperature in the dark. The next day, the wells were aspirated, washed, 200 µL of Elman’s reagent was added in each well, and incubated 2–5 h at 37 °C out of direct light until control wells reach an optical density 0.4–0.5. Gentle rotating/shaking was used to decrease the time required for color development. Absorbance was read at 412 nm. The PGE2 concentration of each sample was calculated from a PGE2 standard curve (PGE2 from Cayman Chemical). The percent inhibition as a function of the inhibitor concentration was graphed to determine the IC50 values (concentration at which there was 50% inhibition).
Background: An ELISA detects its analyte on a solid surface through an enzyme-linked reagent.

The test system of data set [3] is NO production in LPS-induced RAW 264.7 cells. As to the kind of experiment: LPS-induced NO production in RAW 264.7 cells (Griess reagent). Particulars: Mus musculus.
Procedure: The amount of nitrite was measured using the Griess reagent to assess the NO production [47, 48]. […] The cells were treated with various concentrations of compounds dissolved in phenol-red free DMEM for 30 min followed by 1 μg/mL of LPS treatment for 24 h. […] The standard curve was created by using known concentrations of sodium nitrite.
Data set [4] has as its system NFκB. Also noted: method as in PMID 21105712. Particulars: earlier work; read-out: IC50, inhibition of NFκB; cited from earlier work.
In a further data set the test system is iNOS. Also noted: method as in PMID 21105712. Particulars: cited from earlier work.
Data set [5] has as its system quinone reductase 1 (NQ01, QR1). Details: method as in PMID 21187465. Particulars: cell culture; cited from earlier work.
For data set [6], the system named is glutathione S-transferase (GST). Details: method as in PMID 21187465. Particulars: cell culture; cited from earlier work.
Details of data set [7]: method as in PMID 21187465. The settings on record: cited from earlier work.

Consider `Oc1ccc(/C=C/c2cc(O)cc(O)c2)cc1` [Resveratrol, resveratrol, reference compound], for which the IC50 (usually the concentration at which inhibition is half-maximal) turned out to be 2.5 ± 0.3 µM in the data set with NFκB [1]; 2.5 ± 0.43 µM in data set [2] (RAW264.7, read-out: PGE2 IC50); 31.9 ± 1.8 µM in [3] (RAW264.7, read-out: NO IC50). In the data set on RAW 264.7 cells, the “NO % cell survival” value was found to be 86.9 ± 3.9%. Moreover, the inhibition (as a rule, the percentage by which the read-out fell short of the control) at 50 µM in [2] (RAW264.7, read-out: PGE2 % inhibition (50 µM)) was found to be 70.2 ± 13.9%; in [3] (RAW264.7, read-out: NO % inhibition (50 µM), LPS-induced RAW 264.7 cells, 50 µM), 93 ± 0.8%.

For `Oc1c(Br)ccc2nc3ccccc3nc12` [2-bromo-1-hydroxyphenazine], in the data set on NFκB [4], the IC50 is 73 µM. In addition, the “inhibition of iNOS activity” value in the data set with iNOS is recorded as “did not inhibit iNOS activity”.

`Oc1c(Br)cc(Br)c2nc3ccccc3nc12` [2,4-dibromo-1-hydroxyphenazine]: the “activation of QR1” value in [5] is “activate”. Further, the “activation of glutathione S-transferase (GST)” value in [6] was “activate”. In [7], the bioavailability result was “poor bioavailability” and the in vivo activity result was “low”.

On to `Cc1ccc(S(=O)(=O)N[C@@H](Cc2ccccc2)C(=O)CCl)cc1` [TPCK, N-tosyl-L-phenylalanyl chloromethyl ketone, reference compound], for which the IC50 in the data set on NFκB [1] was 3.8 µM.

With `Cc1ccc(S(=O)(=O)/C=C/C#N)cc1` [BAY-11-7082, reference compound], in the data set with NFκB [1], the IC50 was 2 ± 0.28 µM.
